# Measured values from patent US4709027A, “Bicyclic spirosulfonimides with psychotropic activity” (American Home Products Corporation, priority 1986, dated 1987).
# Read-outs that look alike come from different tables or passages of the source.
# Assays:
# [1] = conditioned avoidance (discrete trial) test; assay type: in vivo, male CD rats; settings: Rattus norvegicus, po, rats, read-out: AB50 (dose producing 50% block in avoidance responding), discrete trial
# Method: The antipsychotic activity of the compounds of the invention is assessed via the conditioned avoidance (discrete trial) test. This test has excellent clinical correlation for antipsychotic activity.
# Male CD rats (Charles River) maintained at approximately 400-450 gm body weight are used. Rats trained previously are placed in plexiglass experimental chambers equipped with a response lever, house light, and sonalert. A steel grid floor is wired for presentation of electric shock. Each trial consists of a fifteen-second warning tone (conditioned stimulus), continuing for an additional fifteen seconds accompanied by electric shock, (unconditioned stimulus). The rat can terminate a trial at any point by depression of the response lever. […]
# The following experimental parameters are recorded by computer; (1) the number of interval responses, (2) the number of avoidance responses, (3) the number of escape responses, and (4) the number of trials in which no response occurred.
# Response counts are summed over all subjects at a given dose. […] This number is expressed as a percentage of the total trials. Control performance is arbitrarily assigned a value of 100% for avoidance and the dose calculated to produce a 50% block in avoidance responding (AB50) is obtained from a dose-effect regression line fitted by the method of least squares. […]
# [2] = test system: 5-HT-1A serotonin receptor; assay: ex vivo inhibition of 5-HT-1A serotonin receptor binding (3H-8-OH-DPAT, hippocampal membranes); design: species or system rats; settings: at 1 μM of drug concentration
# Method: Several groups of rats (4-6 rats/group) are injected with test compound or the appropriate vehicle. Thirty minutes later, unless otherwise noted, rats are decapitated and their brains removed. Various brain regions are dissected and rapidly frozen and maintained at -70° C. until used.
# Hippocampal tissue is dissected and homogenized on ice in 40 vols of buffer (50 mM Tris HCl, pH=7.7) using a Polytron homogenizer at setting 5 for 3×15 sec bursts. The homogenate is then centrifuged at 20,000 rpm (RC5-B; 50,000 g) and the supernatant discarded. The pellet is resuspended in 40 vols of the same buffer and incubated at 37° C. for 10 minutes to aid in the removal of endogenous serotonin. the homogenate is then centrifuged (as above) and the supernatant discarded. […]
# The homogenate (50 μl; 0.4-0.6 mg protein/sample) is incubated with 100 μl (1.5-1.8 nM) ^3 H-8-hydroxy-2-(di-n-propylamino)tetraline in a final volume of 2 ml of buffer for 10 minutes at 37° C. […] The vials are then counted in a Packard 460 CD scintillation counter.
# Specific binding is calculated for each of the treatment protocols and is defined as total binding less binding in the presence of excess unlabeled serotonin (1 μM). Specific binding obtained in vehicle-treated rats is compared to that obtained in animals receiving a single or various doses of test compound and expressed as percent of control.
# [3] = conditioned avoidance (shelf-jump response) test; assay type: in vivo, male CD rats; settings: i.p., rats
# From the text: A test designed to determine the potential antipsychotic activity of the compounds of the invention is the conditioned avoidance (shelf-jump response) test.
# Male CD rats (Charles River) maintained at approximately 400-450 gm body weight are used. […] A moveable wall, controlled by a motor, determines whether the rat has access to the shelf at any time during the experiment. The experimental chamber also contains a house light and sonalert. A steel grid floor in the main chamber is wired for presentation of electric shock. Each trial consists of a fifteen-second warning tone (conditioned stimulus), continuing for an additional fifteen seconds accompanied by electric shock, (unconditioned stimulus). A response (jumping onto the exposed shelf of the upper chamber) occurring during the initial fifteen-second warning tone is considered an avoidance response, while a response occurring during shock delivery is considered an escape response. Trials are presented on a fixed interval schedule of one minute. The session consists of thirty-six trials. Animals are run twice weekly with control sessions always preceding a drug run, and with at least one day intervening. Compounds are administered i.p. or p.o. at appropriate pre-treatment times to a minimum of five rats at each dose level over a range of doses.
# The following experimental parameters are recorded by computer: (1) the number of avoidance responses, (2) the number of escape responses, and (3) the number of trials in which no response occurred.
# Response counts are summed over all subjects at a given dose. […] This number is expressed as a percentage of the total trials. Control performance is arbitrarily assigned a value of 100% for avoidance and the dose calculated to produce a 50% block in avoidance responding (AB50) is obtained from a dose-effect regression line fitted by the method of least squares. Potential anti-psychotic compounds suppress avoidance responding and increase escape responding.
displacement of specific 3H-8-OH-DPAT binding from hippocampal membranes [2] [%],Compound,"ED50 ([1]; peroral administration, range in parentheses) [mg/kg]","Active at (dose), shelf-jump [3] [mg/kg]","ED50 ([1]; perorally, unit inferred) [mg/kg]"
,"O=C1CC2(CCCC2)CC(=O)N1CCCCN1CCN(c2ncccn2)CC1 [Buspirone, 8-[4-[4-(2-pyrimidinyl)-1-piperazinyl]butyl]-8-azaspiro[4.5]decane-7,9-dione, reference compound]",47.9,,
61,"CC1CC(=O)N(CCCCN2CCN(c3cncc(Cl)n3)CC2)S(=O)(=O)N1 (stereo not drawn) [Example 1, 2-[4-[4-(6-Chloro-2-pyrazinyl)-1-piperazinyl]butyl]-5,6-dihydro-5-methyl-2H-1,2,6-thiadiazin-3(4H)-one 1,1 dioxide]",,40,32.5
,"O=C1N(CCCCN2CCN(c3ncccn3)CC2)S(=O)(=O)NC12CCCCC2 [Example 2, 3-[4-[4-(2-Pyrimidinyl)-1-piperazinyl]butyl]2-thia-1,3-diazaspiro[4,5]decan-4-one 2,2-dioxide]",,40,
,"CC1CC(=O)N(CCCCN2CCN(c3ncccn3)CC2)S(=O)(=O)N1 (stereo not drawn) [Example 3, 5,6-Dihydro-5-methyl-2-[4-[4-(2-pyrimidinyl)-1-piperazinyl]butyl]-2H-1,2,6-thiadiazin-3(4H)-one 1,1-dioxide]",,40,
